{"source": "patent US7390630B1", "about": "“Method of identifying a compound that selectively inhibits cytokine-stimulated T cell induced production of TNF-alpha by monocytes” (Mathilda and Terence Kennedy Institute of Rheumatology Trust, priority 1999, dated 2008)", "tested_on": "TNFα production in osteoarthritis (OA) synovial cultures", "assay": "TNFα production in osteoarthritis (OA) synovial cultures", "format": "cell-based, Human", "conditions": "48 h", "description": "Osteoarthritis (OA) mononuclear cells were obtained from synovial tissue specimens provided by the Rheumatology Clinic, Charing Cross Hospital, London, UK. As in the case of RA cells (above), OA synovial tissue was teased into small pieces and digested in medium containing 0.15 mg/ml DNase type 1 (Sigma, UK) and 5 mg/ml collagenase (Roche, UK) for 1 to 2 hours at 37° C. After passing cells through nylon mesh to exclude cell debris, cells were washed and resuspended in RPMI medium (BioWhittaker, Verviers, Belgium) (containing 10% heat-inactivated FCS) at a density of 1×10^6 cells/ml and used immediately.\nReagents for the TNFα ELISA were provided by Dr. W. Buurman (Rijks Universiteit Limburg, Maastricht, Netherlands). The ELISA was performed using immobilized anti-TNFα mAb 61E71. and developed using a rabbit anti-TNFα polyclonal antibody. An alternative ELISA for TNFα is commercially available from Pharmingen. The rabbit polyclonal antibody was detected using a peroxidase-conjugated goat anti-rabbit IgG (H+L) (Jackson Immunoresearch Laboratories Inc., Westgrove, PE, USA) followed by an appropriate substrate. The sensitivity range of the assay was 1.6 to 5000 pg/ml.\nThe effect of the PI3 kinase inhibitor, LY294002, was studied on TNFα production in osteoarthritis (OA) synovial cultures. OA synovial joint cultures were cultured for 48 hours in the presence of increasing concentrations of the PI3 kinase inhibitor, LY294002. Culture supernatants were then harvested and assayed for TNFα (pg/ml) by ELISA.", "data": [{"smiles": "O=c1cc(N2CCOCC2)oc2c(-c3ccccc3)cccc12", "note": "[LY294002]", "values": [{"measurement": "TNFα production", "setting": "culture OA 1833, LY 294002 0.005 μM, 0.0 μM: 224 ± 15", "result": "236 ± 11", "unit": "pg/mL"}, {"measurement": "TNFα production", "setting": "culture OA 1833, LY 294002 0.05 μM, 0.0 μM: 224 ± 15", "result": "235 ± 22", "unit": "pg/mL"}, {"measurement": "TNFα production", "setting": "culture OA 1833, LY 294002 0.5 μM, 0.0 μM: 224 ± 15", "result": "233 ± 28", "unit": "pg/mL"}, {"measurement": "TNFα production", "setting": "culture OA 1833, LY 294002 5.0 μM, 0.0 μM: 224 ± 15", "result": "202 ± 15", "unit": "pg/mL"}, {"measurement": "TNFα production", "setting": "culture OA 1833, LY 294002 50.0 μM, 0.0 μM: 224 ± 15", "result": "204 ± 5", "unit": "pg/mL"}, {"measurement": "TNFα production", "setting": "culture OA 1840, LY 294002 0.005 μM, 0.0 μM: 635 ± 19", "result": "612 ± 13", "unit": "pg/mL"}, {"measurement": "TNFα production", "setting": "culture OA 1840, LY 294002 0.05 μM, 0.0 μM: 635 ± 19", "result": "642 ± 32", "unit": "pg/mL"}, {"measurement": "TNFα production", "setting": "culture OA 1840, LY 294002 0.5 μM, 0.0 μM: 635 ± 19", "result": "597 ± 38", "unit": "pg/mL"}, {"measurement": "TNFα production", "setting": "culture OA 1840, LY 294002 5.0 μM, 0.0 μM: 635 ± 19", "result": "651 ± 50", "unit": "pg/mL"}, {"measurement": "TNFα production", "setting": "culture OA 1840, LY 294002 50.0 μM, 0.0 μM: 635 ± 19", "result": "600 ± 31", "unit": "pg/mL"}, {"measurement": "TNFα production", "setting": "culture OA 1851, LY 294002 0.005 μM, 0.0 μM: 227 ± 19", "result": "236 ± 13", "unit": "pg/mL"}, {"measurement": "TNFα production", "setting": "culture OA 1851, LY 294002 0.05 μM, 0.0 μM: 227 ± 19", "result": "250 ± 12", "unit": "pg/mL"}, {"measurement": "TNFα production", "setting": "culture OA 1851, LY 294002 0.5 μM, 0.0 μM: 227 ± 19", "result": "237 ± 63", "unit": "pg/mL"}, {"measurement": "TNFα production", "setting": "culture OA 1851, LY 294002 5.0 μM, 0.0 μM: 227 ± 19", "result": "233 ± 15", "unit": "pg/mL"}, {"measurement": "TNFα production", "setting": "culture OA 1851, LY 294002 50.0 μM, 0.0 μM: 227 ± 19", "result": "246 ± 31", "unit": "pg/mL"}, {"measurement": "TNFα production", "setting": "culture OA 1861, LY 294002 0.005 μM, 0.0 μM: 155 ± 42", "result": "141 ± 33", "unit": "pg/mL"}, {"measurement": "TNFα production", "setting": "culture OA 1861, LY 294002 0.05 μM, 0.0 μM: 155 ± 42", "result": "127 ± 5", "unit": "pg/mL"}, {"measurement": "TNFα production", "setting": "culture OA 1861, LY 294002 0.5 μM, 0.0 μM: 155 ± 42", "result": "145 ± 29", "unit": "pg/mL"}, {"measurement": "TNFα production", "setting": "culture OA 1861, LY 294002 5.0 μM, 0.0 μM: 155 ± 42", "result": "131 ± 44", "unit": "pg/mL"}, {"measurement": "TNFα production", "setting": "culture OA 1861, LY 294002 50.0 μM, 0.0 μM: 155 ± 42", "result": "215 ± 9", "unit": "pg/mL"}, {"measurement": "TNFα production", "setting": "culture OA 1862, LY 294002 0.005 μM, 0.0 μM: 141 ± 35", "result": "166 ± 31", "unit": "pg/mL"}, {"measurement": "TNFα production", "setting": "culture OA 1862, LY 294002 0.05 μM, 0.0 μM: 141 ± 35", "result": "171 ± 55", "unit": "pg/mL"}, {"measurement": "TNFα production", "setting": "culture OA 1862, LY 294002 0.5 μM, 0.0 μM: 141 ± 35", "result": "185 ± 7", "unit": "pg/mL"}, {"measurement": "TNFα production", "setting": "culture OA 1862, LY 294002 5.0 μM, 0.0 μM: 141 ± 35", "result": "226 ± 100", "unit": "pg/mL"}, {"measurement": "TNFα production", "setting": "culture OA 1862, LY 294002 50.0 μM, 0.0 μM: 141 ± 35", "result": "205 ± 19", "unit": "pg/mL"}, {"measurement": "effect on TNFα production in cultures of OA synovial tissue", "setting": "varying concentrations, five different samples", "result": "no significant effect"}]}]}
